This note sets out measurements from paper PMC9967700, “Metabolism-Guided Optimization of Tryptophanol-Derived Isoindolinone p53 Activators” (Pharmaceuticals, 2023).

Like-named read-outs stand apart in the source and are kept apart here.

One assay concerns HCT116 p53−/− cells. Put plainly: Antiproliferative activity, sulforhodamine B (SRB) assay. The format is cell-based, human. The protocol: (§1) Tumor cells were cultured in RPMI-1640 with UltraGlutamine (Lonza, VWR), supplemented with 10% fetal bovine serum (FBS; Gibco, Alfagene) and maintained in a humidified incubator at 37 °C with 5% CO2. Cell lines were seeded in 96-well plates at the cells/well density of 5.0 × 10^3.

In the next assay the test system is HCT116 p53+/+ cells. The description is as above. The format is cell-based, human. To be noted: for S.I. (selectivity index): HCT116 p53−/− versus HCT116 p53+/+; for increase in the antiproliferative activity on bromine insertion at the C-2 indole: versus non-brominated parent isoindolinone. As for the experimental part:
as §1

Assay [1] addresses T1, wt p53 core domain (DNA Binding Domain; p53DBD; residues 94–312) (Homo sapiens, UniProt P04637).
T1 construct: residues 94–312; host or cells: E. coli BL21 (DE3)-[pLys-S]
The experiment in a line: Differential scanning fluorimetry (DSF) thermostability. The note with it: 13d 2.5 mM, MQ 2 mM; for Tm of the wt p53DBD: 5% DMSO, mean ± SD, three assays. The protocol: Expression of wt p53 core domain. The wt p53DBD was expressed in E. coli BL21 (DE3)-[pLys-S] in fusion with an N-terminal 21-residue tag containing the hexa-histidyl peptide (His6) and the thrombin recognition sequence, using the pET15b-based expression construct.
For protein expression 10 mL of an overnight (ON) culture was used to inoculate 1 L of LB medium supplemented with 1 mL of ampicillin 100 mg/mL and 1mL of zinc sulphate 100 mM. Culture medium was incubated at 37 °C, 140 rpm till an OD600nm of ~0.5. Protein expression was then induced by adding 0.5 mL of isopropyl β-D-1-thiogalactopyranoside (IPTG) 1M (Cfinal = 0.5 mM) and bacterial growth at 27 °C, 120 rpm ON. E. coli cells were pelleted by centrifugation for 10 min, 4000 rpm, at 4 °C. The cellular pellet was resuspended in 10 mL of Lysis buffer (Sodium phosphate 50 mM; NaCl 300 mM; glycerol 10%, pH 7.4) supplemented with 1mg/mL Lysozyme (Biochemica Applichem Panreac), 1 mM of phenylmethanesulfonyl fluoride (PMSF) (Merck), 5 µg of DNAse I (Panreac applichem) and 0.8% of Triton X-100 (Merck). After a first step of chemical lysis (30 min incubation, at 4 °C), cells were further disrupted by four cycles of sonication, at 4 °C, during 60 s at 50% duty free cycle on a Vibra Cell (Media Cibernetics). The lysate was subsequently cleared by centrifugation at 10,000 rpm, 40 min, at 4 °C and the supernatant containing the soluble proteins were collected.
Purification of human wt p53DBD and His6-tag removal. Immobilized Metal Affinity Chromatography (IMAC) was performed to purify the wt p53DBD using a nickel-nitrilotriacetic acid (Ni-NTA) agarose resin (QIAGEN). Briefly, 1 mL of Ni^2+ resin was pre-equilibrated using MilliQ water (3 × 1 mL) and Lysis buffer containing 10 mM imidazole (3 × 1 mL). The soluble fraction of cellular lysate was supplemented with 6.8 µL of β-mercaptoethanol and 33.2 µL of imidazole 3 M to obtain the final concentrations of […] and 10 mM, respectively. The lysate was added to the pre-equilibrated resin and protein binding was performed by incubation on an orbital shaker for one hour at 4 °C. The suspension was added to a 9 cm polypropylene conical column (Poly-Prep columns; BioRad) and protein purification was performed by gravity flow with an imidazole gradient consisting of three washing steps (2 × 5 mL of Lysis buffer, 20 mM imidazole; 2 × 5 mL of Lysis buffer, 50 mM imidazole; and 1 × 2.5 mL Lysis buffer, 75 mM imidazole) and an elution step with 5 × 500 µL of Lysis buffer, 250 mM imidazole. Protein eluted fractions were assessed by SDS-PAGE and Coomassie staining. Size exclusion chromatography was performed on the pooled protein eluted fractions, using an AKTA prime plus system (GE Healthcare) equipped with a UV detector (280 nm), a HiLoad 16/60, Superdex 200 prep grade column (GE Healthcare) and SEC buffer (25 mM potassium phosphate buffer, 150 mM NaCl, pH 7.5). The fractions corresponding to the wt p53DBD monomers were collected and treated with thrombin (8 units of thrombin/mg wt p53DBD). The thrombin cleavage was conducted for 18 h at rt at pH 7.4 in the assay buffer recommended by the supplier. Before and after digestion protein concentration was determined through Bradford method.
Thermostability of wt p53DBD core domain assessed by differential scanning fluorimetry (DSF). An amount of 5 μg of thrombin-cleaved wt p53DBD was incubated with testing compounds (2.5 mM) in 25 mM potassium phosphate buffer and 150 mM NaCl, pH 7.5 in a final volume of 50 µL containing 2 µL of 1 mM DTT or 1 mM TCEP to promote p53 core domain redox control, and Sypro Orange at 2.5x final concentration. The fluorescence was assessed on a C1000 Touch thermal cycler equipped with a CFX96 optical reaction module (BioRad) and the FRET channel (λexc 450–490 nm and λem 560–580 nm). Temperature was ramped from 20 to 90 °C with a rate of 0.2 °C/12 sec. The Tm values were calculated using Origin 8 Software. […]
On the technique in general: In DSF a fluorescence change marks the thermal transition of the protein.

The mark [2] stands for this setting: Homo sapiens, HCT-116, 48 h, 48 h treatment, mean ± SEM of 3–5 independent experiments, read-out: HCT116 p53−/− GI50.
Setting [3] is: Homo sapiens, HCT-116, 48 h treatment, mean ± SEM of 3–5 independent experiments, read-out: HCT116 p53+/+ GI50.
The mark [4] stands for this setting: Homo sapiens, HCT-116, 48 h, 48 h treatment, mean ± SEM of 5 independent experiments, read-out: HCT116 p53−/− GI50.
[5] abbreviates: Homo sapiens, HCT-116, 48 h treatment, mean ± SEM of 5 independent experiments, read-out: HCT116 p53+/+ GI50.

T1 sequence (P04637 94-312): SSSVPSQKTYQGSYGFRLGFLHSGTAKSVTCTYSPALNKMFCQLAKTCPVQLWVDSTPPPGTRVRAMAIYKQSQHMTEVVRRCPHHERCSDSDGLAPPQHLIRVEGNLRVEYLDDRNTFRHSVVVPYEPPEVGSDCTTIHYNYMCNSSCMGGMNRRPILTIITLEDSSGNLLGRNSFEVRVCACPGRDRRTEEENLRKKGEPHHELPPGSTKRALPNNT

On to `CCCn1c(Br)c(C[C@@H]2CO[C@@]3(c4ccccc4)c4ccccc4C(=O)N23)c2ccccc21` [13d′, (3R, 9bS)-3-((2-bromo-1-propyl-1H-indol-3-yl)methyl)-9b-phenyl-2,3-dihydrooxazolo[2,3-a]isoindol-5(9bH)-one], for which the GI50 with HCT116 p53−/− cells (setting [2]) worked out at 25.4 ± 1.2 µM; in the assay with HCT116 p53+/+ cells (setting [3]), 31.1 ± 4 µM.
As to `O=C1c2ccccc2[C@@]2(c3ccccc3)OC[C@H](Cc3c(Br)[nH]c4ccccc34)N12` [Compound 13a, (3S, 9bR)-3-((2-bromo-1H-indol-3-yl)methyl)-9b-phenyl-2,3-dihydrooxazolo[2,3-a]isoindol-5(9bH)-one], the GI50 is 10.5 ± 2.6 µM with HCT116 p53−/− cells (setting [2]) and 14.6 ± 0.4 µM in the assay with HCT116 p53+/+ cells (setting [3]). Further, the “S.I. (selectivity index)” value in the assay with HCT116 p53+/+ cells is listed as 0.7.
The matching figures for `Cn1c(Br)c(C[C@H]2CO[C@]3(c4ccccc4)c4ccccc4C(=O)N23)c2ccccc21` [Compound 13c, (3S, 9bR)-3-((2-bromo-1-methyl-1H-indol-3-yl)methyl)-9b-phenyl-2,3-dihydrooxazolo[2,3-a]isoindol-5(9bH)-one]: 10.8 ± 2 µM, 25.6 ± 1.4 µM and 0.4.
Turning to `O=C1c2ccccc2[C@@]2(c3ccc(F)cc3)OC[C@H](Cc3c(Br)[nH]c4ccccc34)N12` [Compound 13g, (3S, 9bR)-3-((2-bromo-1H-indol-3-yl)methyl)-9b-(4-fluorophenyl)-2,3-dihydrooxazolo[2,3-a]isoindol-5(9bH)-one], the GI50 in the assay with HCT116 p53−/− cells (setting [2]) is 6.7 ± 1.6 µM. Further, in the assay with HCT116 p53+/+ cells, the “S.I. (selectivity index)” value worked out at 1.0 and the “increase in the antiproliferative activity on bromine insertion at the C-2 indole” value was found to be 1.2 fold. For the same molecule, in the assay with HCT116 p53+/+ cells (setting [3]), the GI50 is 6.95 ± 0.6 µM.
In the case of `O=C1c2ccccc2[C@@]2(c3ccc(Cl)cc3)OC[C@H](Cc3c(Br)[nH]c4ccccc34)N12` [Compound 13h, (3S, 9bR)-3-((2-bromo-1H-indol-3-yl)methyl)-9b-(4-chlorophenyl)-2,3-dihydrooxazolo[2,3-a]isoindol-5(9bH)-one], the GI50 with HCT116 p53−/− cells (setting [2]) came to 5.8 ± 0.4 µM. For the same molecule, in the assay with HCT116 p53+/+ cells, the “S.I. (selectivity index)” value stood at 1.0 and the “increase in the antiproliferative activity on bromine insertion at the C-2 indole” value came to 1.5 fold. In addition, in the assay on HCT116 p53+/+ cells (setting [3]), the GI50 turned out to be 5.8 ± 0.3 µM.
For the molecule `O=C1c2ccccc2[C@@]2(c3ccc(Cl)c([N+](=O)[O-])c3)OC[C@H](Cc3c(Br)[nH]c4ccccc34)N12` [Compound 13i, (3S, 9bR)-3-((2-bromo-1H-indol-3-yl)methyl)-9b-(4-chloro-3-nitrophenyl)-2,3-dihydrooxazolo[2,3-a]isoindol-5(9bH)-one], the GI50 with HCT116 p53−/− cells (setting [2]) amounted to 22.2 ± 1.2 µM; in the assay with HCT116 p53+/+ cells (setting [3]), 23.3 ± 0.9 µM. Besides, the “S.I. (selectivity index)” value in the assay on HCT116 p53+/+ cells was 1.0.
The like results for `CCn1c(Br)c(C[C@H]2CO[C@]3(c4ccccc4)c4ccccc4C(=O)N23)c2ccccc21` [Compound 13j, (3S, 9bR)-3-((2-bromo-1-ethyl-1H-indol-3-yl)methyl)-9b-phenyl-2,3-dihydrooxazolo[2,3-a]isoindol-5(9bH)-one] were, in that order, 16 ± 2 µM, 13 ± 1.01 µM and 1.2.
Take `O=C1c2ccccc2[C@@]2(c3ccccc3)OC[C@H](Cc3c(Br)n(C(=O)c4ccccc4)c4ccccc34)N12` [Compound 13l, (3S, 9bR)-3-((1-benzoyl-2-bromo-1H-indol-3-yl)methyl)-9b-phenyl-2,3-dihydrooxazolo[2,3-a]isoindol-5(9bH)-one]: the figures for the GI50 in the assay with HCT116 p53−/− cells (setting [2]) and in the assay on HCT116 p53+/+ cells (setting [3]) were greater than 50 µM and 23.2 ± 1.15 µM, respectively.
`CC(=O)n1c(Br)c(C[C@H]2CO[C@]3(c4ccccc4)c4ccccc4C(=O)N23)c2ccccc21` [Compound 13m, (3S, 9bR)-3-((1-acetyl-2-bromo-1H-indol-3-yl)methyl)-9b-phenyl-2,3-dihydrooxazolo[2,3-a]isoindol-5(9bH)-one]: the GI50 with HCT116 p53−/− cells (setting [2]) was 22.5 ± 2.5 µM; in the assay on HCT116 p53+/+ cells (setting [3]), 13.05 ± 0.05 µM. Moreover, in the assay on HCT116 p53+/+ cells, the “S.I. (selectivity index)” value is 1.7.
The like results for `CS(=O)(=O)n1c(Br)c(C[C@H]2CO[C@]3(c4ccccc4)c4ccccc4C(=O)N23)c2ccccc21` [Compound 13n, (3S, 9bR)-3-((2-bromo-1-(methylsulfonyl)-1H-indol-3-yl)methyl)-9b-phenyl-2,3-dihydrooxazolo[2,3-a]isoindol-5(9bH)-one] were, in that order, 13.5 ± 0.5 µM, 12.5 ± 0.5 µM and 1.1.
Consider `Cc1ccc(S(=O)(=O)n2c(Br)c(C[C@H]3CO[C@]4(c5ccccc5)c5ccccc5C(=O)N34)c3ccccc32)cc1` [Compound 13o, (3S, 9bR)-3-((2-bromo-1-tosyl-1H-indol-3-yl)methyl)-9b-phenyl-2,3-dihydrooxazolo[2,3-a]isoindol-5(9bH)-one], for which the GI50 in the assay on HCT116 p53−/− cells (setting [2]) is 20.4 ± 1.15 µM; in the assay on HCT116 p53+/+ cells (setting [3]), 34 ± 4 µM. Besides, in the assay with HCT116 p53+/+ cells (HCT116 p53+/+), the “less active derivative compared with SLMP53-2 (7)” value worked out at 4.0 fold. Besides, the “S.I. (selectivity index)” value with HCT116 p53+/+ cells came out at 0.6.
With `C=C1C(=O)C2CCN1CC2` [MQ, Methylene quinuclidinone, reference compound], the “ΔTm of the wt p53DBD” value in assay [1] (DTT 1 mM) was 2.28 °C; in assay [1] (TCEP 1 mM), 2.11 °C. Also, the results for the “Tm of the wt p53DBD” value in assay [1] (DTT (1 mM)) and in assay [1] (TCEP (1 mM)) were 42.22 ± 0.30 °C and 43.27 ± 1.15 °C, respectively.
As to `C[C@]12OC[C@H](C[C@@H]3C(=O)Nc4ccccc43)N1C(=O)c1ccccc12` [SLMP53-1_M3a, (3S,9bR)-9b-methyl-3-(((S)-2-oxoindolin-3-yl)methyl)-2,3-dihydrooxazolo[2,3-a]isoindol-5(9bH)-one], the GI50 with HCT116 p53−/− cells (setting [4]) and with HCT116 p53+/+ cells (setting [5]) was greater than 50 µM in each case.
For `C[C@]12OC[C@H](C[C@H]3C(=O)Nc4ccccc43)N1C(=O)c1ccccc12` [SLMP53-1_M3b, (3S,9bR)-9b-methyl-3-(((R)-2-oxoindolin-3-yl)methyl)-2,3-dihydrooxazolo[2,3-a]isoindol-5(9bH)-one], the GI50 in the assay on HCT116 p53−/− cells (setting [4]) and with HCT116 p53+/+ cells (setting [5]) was greater than 50 µM each time.
`COc1ccc(C2=N[C@@H](c3ccc(Cl)cc3)[C@@H](c3ccc(Cl)cc3)N2C(=O)N2CCNC(=O)C2)c(OC(C)C)c1` [nutlin-3a, reference compound]: the GI50 stood at 24 ± 0.7 µM in the assay with HCT116 p53−/− cells (control of the SRB assay, 48 h, read-out: GI50 in HCT116 p53−/−) and 3.2 ± 1 µM with HCT116 p53+/+ cells (control of the SRB assay, 48 h, read-out: GI50 in HCT116 p53+/+).
